Counter-ions that a name gives are not always drawn. Bounds are passed on as bounds.

In one test the target is T1, TLR8 (Homo sapiens, UniProt Q9NR97).
T1 construct: expressed in transfected cells; host or cells: HEK/293 reporter cells (NF-kB luciferase)
T1 sequence (Q9NR97 27-1041): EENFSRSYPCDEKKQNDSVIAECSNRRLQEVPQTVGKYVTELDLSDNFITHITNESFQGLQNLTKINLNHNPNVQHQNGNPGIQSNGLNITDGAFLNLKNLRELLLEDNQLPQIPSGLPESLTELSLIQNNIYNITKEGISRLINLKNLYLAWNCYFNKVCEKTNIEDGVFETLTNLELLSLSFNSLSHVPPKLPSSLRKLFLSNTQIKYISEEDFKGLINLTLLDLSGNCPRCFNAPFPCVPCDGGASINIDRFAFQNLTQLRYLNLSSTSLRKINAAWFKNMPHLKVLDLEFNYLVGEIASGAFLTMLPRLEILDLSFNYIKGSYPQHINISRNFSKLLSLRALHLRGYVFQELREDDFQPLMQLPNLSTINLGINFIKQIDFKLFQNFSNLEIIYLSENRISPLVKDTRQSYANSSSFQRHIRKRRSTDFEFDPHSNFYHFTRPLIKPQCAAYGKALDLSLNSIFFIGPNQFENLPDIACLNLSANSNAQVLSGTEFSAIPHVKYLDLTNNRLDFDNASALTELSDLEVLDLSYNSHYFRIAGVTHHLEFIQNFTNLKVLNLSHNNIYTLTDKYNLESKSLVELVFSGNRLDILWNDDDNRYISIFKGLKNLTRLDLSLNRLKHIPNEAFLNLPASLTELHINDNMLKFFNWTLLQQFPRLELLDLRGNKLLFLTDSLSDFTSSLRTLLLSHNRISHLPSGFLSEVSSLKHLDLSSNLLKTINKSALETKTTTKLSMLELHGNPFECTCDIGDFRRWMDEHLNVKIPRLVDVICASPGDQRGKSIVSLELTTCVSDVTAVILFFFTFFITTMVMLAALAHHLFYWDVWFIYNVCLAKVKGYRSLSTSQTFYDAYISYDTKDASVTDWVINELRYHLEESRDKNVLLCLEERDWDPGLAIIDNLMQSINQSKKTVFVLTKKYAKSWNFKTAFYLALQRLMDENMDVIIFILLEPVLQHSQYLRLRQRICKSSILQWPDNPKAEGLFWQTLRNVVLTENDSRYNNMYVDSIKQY
The experiment in a line: HEK/293 TLR8 Cell Assay. It is filed as cell-based. Conditions: HEK cells, R848 agonist 30 uM final concentration, Steady-Glo readout; read-out: TLR8 potency.

The next test addresses T2, TLR7 (Homo sapiens, UniProt Q9NYK1).
T2 construct: expressed in transfected cells; host or cells: HEK/293 cells carrying TLR7 and an NF-kB luciferase reporter
T2 sequence (Q9NYK1 27-1049): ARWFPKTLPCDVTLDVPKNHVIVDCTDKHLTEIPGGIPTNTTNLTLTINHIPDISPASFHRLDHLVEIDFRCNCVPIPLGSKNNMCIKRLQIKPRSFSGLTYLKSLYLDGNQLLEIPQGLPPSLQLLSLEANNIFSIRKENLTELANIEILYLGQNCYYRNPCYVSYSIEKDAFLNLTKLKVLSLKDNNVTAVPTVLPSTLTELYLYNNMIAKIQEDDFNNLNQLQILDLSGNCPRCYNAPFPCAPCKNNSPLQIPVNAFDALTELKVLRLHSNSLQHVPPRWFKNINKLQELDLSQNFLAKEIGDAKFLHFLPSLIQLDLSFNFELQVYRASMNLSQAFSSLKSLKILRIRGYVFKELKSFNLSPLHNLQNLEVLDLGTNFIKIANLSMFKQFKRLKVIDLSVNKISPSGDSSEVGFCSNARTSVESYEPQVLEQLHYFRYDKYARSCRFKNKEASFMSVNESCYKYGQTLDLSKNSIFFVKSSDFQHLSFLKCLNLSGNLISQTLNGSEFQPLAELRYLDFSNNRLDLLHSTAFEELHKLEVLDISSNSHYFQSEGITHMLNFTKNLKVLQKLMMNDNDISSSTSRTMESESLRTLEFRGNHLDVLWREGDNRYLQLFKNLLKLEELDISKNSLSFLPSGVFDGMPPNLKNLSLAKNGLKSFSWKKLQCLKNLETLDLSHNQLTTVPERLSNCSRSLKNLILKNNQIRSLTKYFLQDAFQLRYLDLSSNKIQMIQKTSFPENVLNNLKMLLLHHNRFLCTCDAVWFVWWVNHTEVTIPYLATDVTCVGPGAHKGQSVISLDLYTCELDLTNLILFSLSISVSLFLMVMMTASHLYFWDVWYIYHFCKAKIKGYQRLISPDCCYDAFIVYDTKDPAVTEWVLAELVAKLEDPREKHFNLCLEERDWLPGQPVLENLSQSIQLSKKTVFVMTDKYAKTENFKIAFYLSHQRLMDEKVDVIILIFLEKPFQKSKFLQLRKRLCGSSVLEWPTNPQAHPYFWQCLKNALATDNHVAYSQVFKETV
The experiment in a line: HEK/293 TLR7 Cell Assay. Conditions: TLR7/NFKb HEK cells, R848 agonist 10 uM final concentration, Steady-Glo readout; read-out: TLR7 potency. It is filed as cell-based. In short, it runs like this:
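TLR7/NF-κB reporter HEK293 cells, 5000/well, cultured 24 h, then preincubated 30 min with compound before R848 agonist (10 uM final). After 5 h stimulation, Steady-Glo luciferase luminescence read.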

For `C[C@@H]1CN(c2ccc(C#N)c3nccnc23)C[C@H](C(=O)N2C[C@H](N)C[C@H](C(F)(F)F)C2)O1` [Example 295, 8-[(2R,6R)-2-((3R,5S)-3-Amino-5-trifluoromethyl-piperidine-1-carbonyl)-6-methyl-morpholin-4-yl]-quinoxaline-5-carbonitrile hydrochloride (2)], the IC50 on TLR8 and on TLR7 was less than 0.075 µM in each case.

On to `C[C@@H]1CN(c2ccc(C#N)c3ncncc23)C[C@H](CNC(=O)[C@]2(F)CCNC2)O1` (single isomer, unassigned) [Example 345], for which the IC50 on TLR8 and at TLR7 was less than 0.075 µM throughout.

Regarding `C[C@@H]1CN(c2cnc(C#N)c3ncccc23)C[C@H](CNC(=O)C2(F)CCCNC2)O1` (stereo partly drawn) [Example 333, N-{[(2S,6R)-4-(8-cyano-1,7-naphthyridin-5-yl)-6-methylmorpholin-2-yl]methyl}-3-fluoropiperidine-3-carboxamide], the figures for the IC50 on TLR8 and on TLR7 were less than 0.075 µM and 0.075 to 0.15 µM, respectively.

As for `N#Cc1ncc(N2C[C@@H](C(=O)NCC3(F)CCNCC3)O[C@@H](C(F)(F)F)C2)c2cccnc12` (single isomer, unassigned) [Example 318], the IC50 at TLR8 and at TLR7 was more than 0.15 µM in each case.

For the compound `C[C@H]1C[C@@H](NC(=O)CC2CN(C)C2)CN(c2cc(F)c(C#N)c3ncccc23)C1` [Example 59, N-[(3R,5S)-1-(8-Cyano-7-fluoro-quinolin-5-yl)-5-methyl-piperidin-3-yl]-2-(1-methyl-azetidin-3-yl)-acetamide], the IC50 was more than 0.15 µM on TLR8 and 0.075 to 0.15 µM at TLR7.

As to `C[C@@H]1CN(c2cnc(C#N)c3ncccc23)C[C@H](C(=O)NC[C@@H]2CN(C)CCO2)O1` [Example 275, (2R,6R)-4-(8-Cyano-[1,7]naphthyridin-5-yl)-6-methyl-morpholine-2-carboxylic acid ((R)-4-methyl-morpholin-2-ylmethyl)-amide], the IC50 on TLR8 and at TLR7 was less than 0.075 µM throughout.

As to `C[C@@H]1CN(c2ccc(C#N)c3nccnc23)C[C@H](C(=O)N[C@H]2CNC[C@H]2F)O1` [Example 294, (2R,6R)-4-(8-Cyano-quinoxalin-5-yl)-6-methyl-morpholine-2-carboxylic acid ((3S,4R)-4-fluoro-pyrrolidin-3-yl)-amide hydrochloride (2)], the IC50 on TLR8 and on TLR7 was less than 0.075 µM throughout.

For the compound `CN1CCC(O)(CC(=O)N[C@@H]2C[C@H](C(F)(F)F)CN(c3ccc(C#N)c4nccnc34)C2)CC1` [Example 76, N-[(3R,5S)-1-(8-cyanoquinoxalin-5-yl)-5-(trifluoromethyl)piperidin-3-yl]-2-(4-hydroxy-1-methylpiperidin-4-yl)acetamide], the IC50 on TLR8 was less than 0.075 µM; at TLR7 it was 0.075 to 0.15 µM.

Turning to `C[C@@H]1CN(c2ccc(C#N)c3nccnc23)C[C@H](CN2CC[C@H](O)C2)O1` [Example 220, 8-[(2S,6R)-2-((S)-3-Hydroxy-pyrrolidin-1-ylmethyl)-6-methyl-morpholin-4-yl]-quinoxaline-5-carbonitrile], the IC50 at TLR8 was more than 0.15 µM; on TLR7, less than 0.075 µM.

Turning to `CC(=O)NCCN[C@@H]1C[C@H](C)CN(c2ccc(C(F)(F)F)c3nccnc23)C1` [Example 25, N-{2-[(3R,5S)-5-Methyl-1-(8-trifluoromethyl-quinoxalin-5-yl)-piperidin-3-ylamino]-ethyl}-acetamide formic acid], the IC50 on TLR8 and on TLR7 was less than 0.075 µM each time.

`CN(C)CCNC(=O)N[C@@H]1C[C@H](C(F)(F)F)CN(c2ccc(C(F)(F)F)c3nccnc23)C1` [Example 142, 3-[2-(dimethylamino)ethyl]-1-[(3R,5S)-5-(trifluoromethyl)-1-[8-(trifluoromethyl)quinoxalin-5-yl]piperidin-3-yl]urea]: the IC50 at TLR8 and at TLR7 was 0.075 to 0.15 µM each time.

Turning to `C[C@H]1C[C@@H](OCCN2CCCCC2)CN(c2ccc(C(F)(F)F)c3ncccc23)C1` (racemic) [Example 3, 5-[cis-3-methyl-5-[2-(piperidin-1-yl)ethoxy]piperidin-1-yl]-8-(trifluoromethyl)quinolone], the IC50 on TLR8 is less than 0.075 µM; at TLR7, more than 0.15 µM.

Regarding `C[C@@H]1CN(c2ccc(C#N)c3nccnc23)C[C@H](C(=O)NCC2CS(=O)(=O)C2)O1` [Example 258, (2R,6R)-4-(8-cyanoquinoxalin-5-yl)-N-[(1,1-dioxo-1λ^6-thietan-3-yl)methyl]-6-methylmorpholine-2-carboxamide], the figures for the IC50 on TLR8 and at TLR7 were more than 0.15 µM and less than 0.075 µM, respectively.

Regarding `N#Cc1ccc(N2C[C@H](NC(=O)C3(F)CCNC3)C[C@H](C(F)(F)F)C2)c2cccnc12` (single isomer, unassigned) [Example 163], the IC50 at TLR8 and at TLR7 was less than 0.075 µM throughout.

As to `C[C@@H]1CN(c2cnc(C#N)c3ncccc23)C[C@H](C(=O)NCC2(F)CCNCC2)O1` [Example 300, (2R,6R)-4-(8-Cyano-[1,7]naphthyridin-5-yl)-6-methyl-morpholine-2-carboxylic acid (4-fluoro-piperidin-4-ylmethyl)-amide], the IC50 was 0.075 to 0.15 µM at TLR8 and less than 0.075 µM on TLR7.

With `Cc1c(F)cc(N2C[C@H](NC(=O)CC3C4CC3CN(C)C4)C[C@H](C(F)(F)F)C2)c2cccnc12` (stereo partly drawn) [Example 113, N-[(3R,5S)-1-(7-Fluoro-8-methyl-quinolin-5-yl)-5-trifluoromethyl-piperidin-3-yl]-2-(3-methyl-3-aza-bicyclo[3.1.1]hept-6-yl)-acetamide], the IC50 at TLR8 was less than 0.075 µM; on TLR7 it was 0.075 to 0.15 µM.

For `C[C@H]1C[C@@H](NC(=O)CC2CS(=O)(=O)C2)CN(c2ccc(C#N)c3nccnc23)C1` [Example 207, N-[(3R,5S)-1-(8-cyanoquinoxalin-5-yl)-5-methylpiperidin-3-yl]-2-(1,1-dioxo-1λ^6-thietan-3-yl)acetamide], the IC50 at TLR8 was 0.075 to 0.15 µM; at TLR7, more than 0.15 µM.

With `C[C@@H]1CN(c2ccc(C#N)c3nccnc23)C[C@H](C(=O)NC2CCN(CC3CC3)C2)O1` (stereo partly drawn) [Example 241, (2R,6R)-4-(8-Cyano-quinoxalin-5-yl)-6-methyl-morpholine-2-carboxylic acid (1-cyclopropylmethyl-pyrrolidin-3-yl)-amide], the IC50 on TLR8 and at TLR7 was less than 0.075 µM each time.

Take `C[C@H](N)C(=O)N[C@@H]1C[C@H](C(F)(F)F)CN(c2ccc(C(F)(F)F)c3ncccc23)C1` [Example 171, (S)-2-Amino-N-[(3R,5S)-5-trifluoromethyl-1-(8-trifluoromethyl-quinolin-5-yl)-piperidin-3-yl]-propionamide]: the IC50 on TLR8 and on TLR7 was less than 0.075 µM in each case.

(Values after patent US20210300940A1 (Merck Patent GmbH, priority 2018, published 2021).)
